Measured values as given in PMC5872150 (ACS chemical neuroscience, 2017).
Counter-ions that a name gives are not always drawn. Like-named read-outs stand apart in the source and are kept apart here.

Experiments:
[1] = system: CHO-hM1 cells; experiment: Ca2+ assay features: Fluo-4 fluorescent signal of CHO-hM1 cells; format: cell-based, Chinese hamster; conditions: bath application
[2] = system: pilocarpine-induced seizures in C57BL/6 mice; experiment: Pilocarpine-induced seizures; format: in vivo, mouse
[3] = biological target: T1, human M1 mAChR (Homo sapiens, UniProt P11229)
T1 sequence (P11229 1-460): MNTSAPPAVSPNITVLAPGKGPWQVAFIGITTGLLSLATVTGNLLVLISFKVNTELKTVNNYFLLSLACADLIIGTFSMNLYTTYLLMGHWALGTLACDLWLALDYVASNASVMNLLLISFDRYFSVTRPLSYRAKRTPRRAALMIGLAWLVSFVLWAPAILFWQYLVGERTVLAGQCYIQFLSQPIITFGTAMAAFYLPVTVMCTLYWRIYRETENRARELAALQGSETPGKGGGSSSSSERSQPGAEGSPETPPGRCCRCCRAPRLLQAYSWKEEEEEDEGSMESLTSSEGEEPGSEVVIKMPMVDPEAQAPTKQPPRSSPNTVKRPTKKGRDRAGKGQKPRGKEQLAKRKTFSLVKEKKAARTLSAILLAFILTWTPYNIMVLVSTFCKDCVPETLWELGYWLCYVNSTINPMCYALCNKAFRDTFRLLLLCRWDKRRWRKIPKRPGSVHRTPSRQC

[4] = system: pilocarpine-induced total fluid secretion in C57BL/6 mice; conditions: s.c., pilocarpine 50 mg/kg i.p.
[5] = biological target: human α7 nAChR (Homo sapiens, UniProt P36544); conditions: for inhibition of acetylcholine-induced inward current: acetylcholine 1 mM
Sequence of human α7 nAChR (P36544 23-502): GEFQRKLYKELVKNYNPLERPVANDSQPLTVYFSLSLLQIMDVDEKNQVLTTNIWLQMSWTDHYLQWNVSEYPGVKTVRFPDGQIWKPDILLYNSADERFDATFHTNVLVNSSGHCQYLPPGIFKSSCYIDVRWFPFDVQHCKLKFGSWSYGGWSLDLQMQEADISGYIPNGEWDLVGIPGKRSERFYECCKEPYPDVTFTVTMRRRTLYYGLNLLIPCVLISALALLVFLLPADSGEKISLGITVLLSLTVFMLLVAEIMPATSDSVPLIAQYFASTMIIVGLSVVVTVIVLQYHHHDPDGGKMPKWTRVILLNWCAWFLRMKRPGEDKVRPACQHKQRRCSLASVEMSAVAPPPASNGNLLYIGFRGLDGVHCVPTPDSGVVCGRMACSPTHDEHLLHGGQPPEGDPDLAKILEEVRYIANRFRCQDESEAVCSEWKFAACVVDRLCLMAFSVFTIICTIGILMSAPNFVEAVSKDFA

## Nc1ncnc2c1ncn2[C@@H]1O[C@H](COP(=O)(O)OP(=O)(O)OP(=O)(O)O)[C@@H](O)[C@H]1O [ATP]
[1]; ATP 100 μM
  effect on Ca2+-dependent fluorescent counts: rapidly increased the fluorescent counts

## C/C=C(/C)C(=O)O[C@H]1C(C)=C2[C@H]([C@@H]1OC(=O)CCCCCCC)[C@@](C)(OC(C)=O)C[C@H](OC(=O)CCC)[C@@]1(O)[C@H]2OC(=O)[C@@]1(C)O [Thapsigargin]
[1]; thapsigargin 1 μM
  effect on Ca2+-dependent fluorescent counts: smaller and slower increase in the fluorescent counts

## CN1[C@@H]2CC[C@H]1C[C@@H](OC(=O)C(CO)c1ccccc1)C2 (some centres unmarked) [atropine sulfate, Atropine sulfate monohydrate, reference compound]
[2]; 3 mg/kg s.c. 25 min before pilocarpine 278 mg/kg
  effect on pilocarpine-induced seizures: blocked the development of seizures in every mouse

## ethylatropine bromide
[3]
  fold less potent than atropine at human M1 muscarinic receptors: approximately 3.3 fold
[4]
  approximate IC50 for attenuation of pilocarpine-induced total secretion: ~0.3 mg/kg
[2]; 100 mg/kg s.c. 25 min before pilocarpine 278 mg/kg, all six mice
  time to behavior score 3 after pilocarpine administration: ≤ 30 min
[2]; 100 mg/kg s.c. 25 min before pilocarpine 278 mg/kg, six mice
  effect on pilocarpine-induced seizures: experienced at least one tonic seizure
[5]; 3 μM, n = 3
  inhibition of acetylcholine-induced inward current: 1.2 ± 8%
[5]; 30 μM, n = 5
  inhibition of acetylcholine-induced inward current: 29 ± 3%
[5]; 300 μM, n = 4
  inhibition of acetylcholine-induced inward current: 46 ± 2%
[5]; ratio of estimated IC50s
  fold less potent than atropine sulfate at α7 nicotinic receptors: ~300 fold
